Reference: PubChem BioAssay AID1259407 (Chemical Carcinogenesis Research Information System (CCRIS), 2018)
Activity calls are given as the source filed them. How the calls were made is not given here.

System: CCRIS mutagenicity, Ames/micronucleus/aberration tests
Assay: CCRIS mutagenicity studies
[1] = Test System: AMES SALMONELLA TYPHIMURIUM, Strain/Indicator: TA98, Metabolic Activation: NONE, Method: STANDARD PLATE
[2] = Test System: AMES SALMONELLA TYPHIMURIUM, Strain/Indicator: TA98, Metabolic Activation: RAT, LIVER, S-9, AROCLOR 1254, Method: STANDARD PLATE
[3] = Test System: AMES SALMONELLA TYPHIMURIUM, Strain/Indicator: TA100, Metabolic Activation: NONE, Method: STANDARD PLATE
[4] = Test System: AMES SALMONELLA TYPHIMURIUM, Strain/Indicator: TA100, Metabolic Activation: RAT, LIVER, S-9, AROCLOR 1254, Method: STANDARD PLATE
[5] = Test System: MOUSE LYMPHOMA, Strain/Indicator: L5178Y (TK+/TK-), Metabolic Activation: NONE, Method: SUSPENSION/PLATE
[6] = Test System: MOUSE LYMPHOMA, Strain/Indicator: L5178Y (TK+/TK-), Metabolic Activation: RAT, LIVER, S-9, AROCLOR 1254, Method: SUSPENSION/PLATE

CCC(C)Cl (stereo unspecified)
mutagenic call (Test System: Mouse lymphoma, Strain/Indicator: L5178Y (tk+/tk-), Metabolic Activation: None, Method: Suspension/plate): inactive; negative | mutagenic call (Test System: Mouse lymphoma, Strain/Indicator: L5178Y (tk+/tk-), Metabolic Activation: Rat, Liver, S-9, Aroclor 1254, Method: Suspension/plate): inactive; negative

COC(=O)Nc1nc2ccc(/C(=N/O)c3ccc(F)cc3)cc2[nH]1
mutagenic call [1]: inactive; negative | mutagenic call [2]: active; positive | mutagenic call [3]: inactive; negative | mutagenic call [4]: inactive; negative

ClC1=C(Cl)[C@]2(Cl)[C@@H]3[C@@H]4C[C@@H]([C@H]5O[C@@H]45)[C@@H]3[C@@]1(Cl)C2(Cl)Cl
mutagenic call (End Point: IN VITRO CHROMOSOMAL ABERRATIONS, Test System: CHINESE HAMSTER OVARY CELLS, Metabolic Activation: NONE): inactive; negative | mutagenic call (End Point: IN VITRO CHROMOSOMAL ABERRATIONS, Test System: CHINESE HAMSTER OVARY CELLS, Metabolic Activation: RAT, LIVER, S-9, AROCLOR 1254): inactive; negative; precipitation occurred at all doses | mutagenic call (Test System: AMES SALMONELLA TYPHIMURIUM, Strain/Indicator: TA97, Metabolic Activation: NONE, Method: STANDARD PLATE): inactive; negative | mutagenic call (Test System: AMES SALMONELLA TYPHIMURIUM, Strain/Indicator: TA97, Metabolic Activation: RAT, LIVER, S-9, AROCLOR 1254, Method: STANDARD PLATE): inactive; negative | mutagenic call [1]: inactive; negative | mutagenic call [2]: inactive; negative | mutagenic call [3]: inactive; negative | mutagenic call [4]: inactive; negative | mutagenic call (Test System: AMES SALMONELLA TYPHIMURIUM, Strain/Indicator: TA102, Metabolic Activation: NONE, Method: STANDARD PLATE): inactive; negative | mutagenic call (Test System: AMES SALMONELLA TYPHIMURIUM, Strain/Indicator: TA102, Metabolic Activation: RAT, LIVER, S-9, AROCLOR 1254, Method: STANDARD PLATE): inactive; negative | mutagenic call (Test System: CHINESE HAMSTER V-79, Strain/Indicator: V-79/OUABAIN, Metabolic Activation: NONE, Method: STANDARD PLATE): active; positive | mutagenic call [5]: active; positive

CCCCCCCCCC/C=C/C1CC(=O)OC1=O (stereo unspecified)
mutagenic call (Test System: AMES SALMONELLA TYPHIMURIUM, Strain/Indicator: TA98, Metabolic Activation: HAMSTER, LIVER, S-9, AROCLOR 1254, Method: STANDARD PLATE): inactive; negative | mutagenic call [1]: inactive; negative | mutagenic call [2]: inactive; negative | mutagenic call (Test System: AMES SALMONELLA TYPHIMURIUM, Strain/Indicator: TA100, Metabolic Activation: HAMSTER, LIVER, S-9, AROCLOR 1254, Method: STANDARD PLATE): inactive; negative | mutagenic call [3]: inactive; negative | mutagenic call [4]: inactive; negative | mutagenic call (Test System: AMES SALMONELLA TYPHIMURIUM, Strain/Indicator: TA1535, Metabolic Activation: HAMSTER, LIVER, S-9, AROCLOR 1254, Method: STANDARD PLATE): inactive; negative | mutagenic call (Test System: AMES SALMONELLA TYPHIMURIUM, Strain/Indicator: TA1535, Metabolic Activation: NONE, Method: STANDARD PLATE): inactive; negative | mutagenic call (Test System: AMES SALMONELLA TYPHIMURIUM, Strain/Indicator: TA1535, Metabolic Activation: RAT, LIVER, S-9, AROCLOR 1254, Method: STANDARD PLATE): inactive; negative | mutagenic call (Test System: AMES SALMONELLA TYPHIMURIUM, Strain/Indicator: TA1537, Metabolic Activation: HAMSTER, LIVER, S-9, AROCLOR 1254, Method: STANDARD PLATE): inactive; negative | mutagenic call (Test System: AMES SALMONELLA TYPHIMURIUM, Strain/Indicator: TA1537, Metabolic Activation: NONE, Method: STANDARD PLATE): inactive; negative | mutagenic call (Test System: AMES SALMONELLA TYPHIMURIUM, Strain/Indicator: TA1537, Metabolic Activation: RAT, LIVER, S-9, AROCLOR 1254, Method: STANDARD PLATE): inactive; negative | mutagenic call (Test System: AMES SALMONELLA TYPHIMURIUM, Strain/Indicator: TA1538, Metabolic Activation: HAMSTER, LIVER, S-9, AROCLOR 1254, Method: STANDARD PLATE): inactive; negative | mutagenic call (Test System: AMES SALMONELLA TYPHIMURIUM, Strain/Indicator: TA1538, Metabolic Activation: NONE, Method: STANDARD PLATE): inactive; negative | mutagenic call (Test System: AMES SALMONELLA TYPHIMURIUM, Strain/Indicator: TA1538, Metabolic Activation: RAT, LIVER, S-9, AROCLOR 1254, Method: STANDARD PLATE): inactive; negative | mutagenic call [5]: inactive; negative. reevaluation of results: inconclusive | mutagenic call [6]: inactive; negative. reevaluation of results: negative

C[C@]12CC[C@@H]3c4ccc(O)c(O)c4CC[C@H]3[C@@H]1CCC2=O
mutagenic call (Test System: Ames Salmonella typhimurium, Strain/Indicator: TA98, Metabolic Activation: None, Method: Standard plate): inactive; negative | mutagenic call (Test System: Ames Salmonella typhimurium, Strain/Indicator: TA98, Metabolic Activation: Rat, liver, S-9, Method: Standard plate): inactive; negative | mutagenic call (Test System: Ames Salmonella typhimurium, Strain/Indicator: TA100, Metabolic Activation: None, Method: Standard plate): inactive; negative | mutagenic call (Test System: Ames Salmonella typhimurium, Strain/Indicator: TA100, Metabolic Activation: Rat, liver, S-9, Method: Standard plate): inactive; negative

COS(=O)(=O)C(F)(F)F
mutagenic call (Test System: AMES SALMONELLA TYPHIMURIUM, Strain/Indicator: TA100, Metabolic Activation: HAMSTER, LIVER, S-9, AROCLOR 1254 (10%), Method: PREINCUBATION): active; positive | mutagenic call [5]: active; positive. reevaluation of results: positive | mutagenic call [6]: active; positive. reevaluation of results: positive

CNC(=O)C=Cc1ccc([N+](=O)[O-])o1
mutagenic call (Test System: AMES SALMONELLA TYPHIMURIUM, Strain/Indicator: TA98, Metabolic Activation: NONE, Method: PREINCUBATION): active; positive

COc1cc(O)c2c(=O)c3cc(OC)ccc3oc2c1
mutagenic call (Test System: AMES SALMONELLA TYPHIMURIUM, Strain/Indicator: TA97, Metabolic Activation: RAT, LIVER, S-9, PHENOBARBITAL AND 5,6-BENZOFLAVONE, Method: PREINCUBATION): active; positive | mutagenic call (Test System: AMES SALMONELLA TYPHIMURIUM, Strain/Indicator: TA98, Metabolic Activation: RAT, LIVER, S-9, PHENOBARBITAL AND 5,6-BENZOFLAVONE, Method: PREINCUBATION): inactive; negative | mutagenic call (Test System: AMES SALMONELLA TYPHIMURIUM, Strain/Indicator: TA100, Metabolic Activation: RAT, LIVER, S-9, PHENOBARBITAL AND 5,6-BENZOFLAVONE, Method: PREINCUBATION): active; positive | mutagenic call (Test System: AMES SALMONELLA TYPHIMURIUM, Strain/Indicator: TA2637, Metabolic Activation: RAT, LIVER, S-9, PHENOBARBITAL AND 5,6-BENZOFLAVONE, Method: PREINCUBATION): active; positive

[As]
mutagenic call (End Point: IN VIVO CHROMOSOMAL ABERRATIONS, Test System: BLOOD LYMPHOCYTES, Species: HUMAN, Strain/Sex: MALE, FEMALE, Route: ORAL, DRINKING WATER): active; positive (structural changes) ; all subjects showed arsenic-related skin lesions | mutagenic call (End Point: IN VIVO CHROMOSOMAL ABERRATIONS, Test System: PERIPHERAL BLOOD LYMPHOCYTES, Species: HUMAN, Strain/Sex: MALE, FEMALE, Route: DRINKING WATER): active; positive; exact form of arsenic not given: significant increase in exposed indiv | mutagenic call (End Point: IN VIVO MICRONUCLEUS, Test System: PERIPHERAL BLOOD LYMPHOCYTES, Species: HUMAN, Strain/Sex: MALE, FEMALE, Route: ORAL, DRINKING WATER): active; positive; environmental exposure from drinking water | mutagenic call (End Point: In vivo micronucleus, Test System: Peripheral lymphocytes, Species: Human, Strain/Sex: Male, Route: Inhalation (Occupational)): inactive; negative
